Experiment: Apparent intrinsic clearance in human liver microsomes
Assay type: ADME, Microsome
Conditions: read-out: CLH(app)

- CLint scaled: > 30 mL/min/kg
SMILES: Cc1ncccc1Oc1ncnc(N2C3CC4CC2CC(C3)N4C(=O)OCC(C)C)c1C

Reference: ChEMBL document CHEMBL2311407, “Design and synthesis of diazatricyclodecane agonists of the G-protein-coupled receptor 119” (J Med Chem, 2013)
